Assay results published in ChEMBL document CHEMBL4732124 (Eur J Med Chem, 2021).

The compounds below were run on HepG2 (assay: Antiproliferative activity against human HepG2 cells assessed as cell viability at 10 uM after 48 hrs by MTT assay relative to control). Conditions: read-out: Activity.
Assay type: functional

Compound	viability at 10 µM
CNC(=O)c1cc(-n2ccc3cc(NC(=S)Nc4cccc(C(F)(F)F)c4)ccc32)ccn1	81%
CNC(=O)c1cc(-n2ccc3cc(NC(=O)Nc4cc(C(F)(F)F)cc(C(F)(F)F)c4)ccc32)ccn1	55%
CNC(=O)c1cc(-n2ccc3cc(NC(=S)Nc4ccc(Cl)c(Cl)c4)ccc32)ccn1	79%
CNC(=O)c1cc(-n2ccc3cc(NC(=S)Nc4ccccc4)ccc32)ccn1	100%
CNC(=O)c1cc(-n2ccc3cc(NC(=O)c4ccc(F)c(C(F)(F)F)c4)ccc32)ccn1	67%
CNC(=O)c1cc(-n2ccc3cc(NC(=O)Nc4ccccc4)ccc32)ccn1	82%
CNC(=O)c1cc(Oc2ccc(NC(=O)Nc3ccc(Cl)c(C(F)(F)F)c3)cc2)ccn1 [SORAFENIB]	35%

The compounds below were run on Hep 3B2 (assay: Antiproliferative activity against human Hep3B cells assessed as reduction in cell viability after 48 hrs by MTT assay). Conditions: not given.
Assay type: functional, cell-based

Compound	IC50
CNC(=O)c1cc(-n2ccc3cc(NC(=O)Nc4cc(C(F)(F)F)cc(C(F)(F)F)c4)ccc32)ccn1	29.8 µM
CNC(=O)c1cc(Oc2ccc(NC(=O)Nc3ccc(Cl)c(C(F)(F)F)c3)cc2)ccn1 [SORAFENIB]	8.62 µM

The compounds below were run on HepG2 (assay: Antiproliferative activity against human HepG2 cells assessed as reduction in cell viability after 48 hrs by MTT assay). Conditions: HepG2, 48 h.
Assay type: functional, cell-based

IC50	Compound
7.22 µM	CNC(=O)c1cc(Oc2ccc(NC(=O)Nc3ccc(Cl)c(C(F)(F)F)c3)cc2)ccn1 [SORAFENIB]

Each compound was assayed against Platelet-derived growth factor receptor beta (Homo sapiens) (UniProt P09619) (assay: Inhibition of PDGFRbeta (unknown origin) in presence of [gamma33]-ATP at 10 uM by liquid scintillation counting analysis relative to control). Conditions: not given.
Chain of Platelet-derived growth factor receptor beta (Homo sapiens) (P09619 whole entry): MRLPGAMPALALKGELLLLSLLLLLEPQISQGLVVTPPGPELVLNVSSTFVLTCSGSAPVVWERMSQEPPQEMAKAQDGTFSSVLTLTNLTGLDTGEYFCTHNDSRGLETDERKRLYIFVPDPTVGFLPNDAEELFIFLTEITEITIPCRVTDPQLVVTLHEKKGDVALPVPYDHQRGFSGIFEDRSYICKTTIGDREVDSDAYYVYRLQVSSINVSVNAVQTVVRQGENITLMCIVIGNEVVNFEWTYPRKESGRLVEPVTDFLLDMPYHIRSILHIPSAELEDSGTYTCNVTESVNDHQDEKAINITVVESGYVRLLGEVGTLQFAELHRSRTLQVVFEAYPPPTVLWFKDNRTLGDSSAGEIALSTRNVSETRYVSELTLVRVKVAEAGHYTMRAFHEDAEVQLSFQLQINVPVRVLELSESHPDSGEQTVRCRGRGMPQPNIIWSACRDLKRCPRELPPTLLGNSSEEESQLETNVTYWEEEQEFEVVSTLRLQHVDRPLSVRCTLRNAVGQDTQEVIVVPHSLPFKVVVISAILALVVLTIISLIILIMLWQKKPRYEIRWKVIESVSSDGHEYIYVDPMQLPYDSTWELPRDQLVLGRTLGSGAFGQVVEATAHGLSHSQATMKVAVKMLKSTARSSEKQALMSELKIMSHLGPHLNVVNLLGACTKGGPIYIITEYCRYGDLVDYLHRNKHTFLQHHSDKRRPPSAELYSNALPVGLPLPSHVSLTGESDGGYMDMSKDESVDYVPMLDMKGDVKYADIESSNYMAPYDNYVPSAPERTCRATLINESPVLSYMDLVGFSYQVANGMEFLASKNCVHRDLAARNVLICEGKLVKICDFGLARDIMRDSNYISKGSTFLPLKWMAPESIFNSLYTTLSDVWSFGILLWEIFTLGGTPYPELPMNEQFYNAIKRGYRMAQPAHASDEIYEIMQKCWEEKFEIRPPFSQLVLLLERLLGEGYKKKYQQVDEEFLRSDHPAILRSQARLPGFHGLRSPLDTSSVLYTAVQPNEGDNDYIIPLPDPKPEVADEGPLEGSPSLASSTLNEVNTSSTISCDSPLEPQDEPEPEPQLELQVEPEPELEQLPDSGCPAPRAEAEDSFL

inhibition	Compound
99.1%	CNC(=O)c1cc(Oc2ccc(NC(=O)Nc3ccc(Cl)c(C(F)(F)F)c3)cc2)ccn1 [SORAFENIB]

These compounds were tested against T1, Serine/threonine-protein kinase A-Raf (Homo sapiens) (UniProt P10398) (assay: Inhibition of A-Raf (unknown origin) in presence of [gamma33]-ATP at 10 uM by liquid scintillation counting analysis relative to control). Conditions: not given.
T1 sequence (whole entry): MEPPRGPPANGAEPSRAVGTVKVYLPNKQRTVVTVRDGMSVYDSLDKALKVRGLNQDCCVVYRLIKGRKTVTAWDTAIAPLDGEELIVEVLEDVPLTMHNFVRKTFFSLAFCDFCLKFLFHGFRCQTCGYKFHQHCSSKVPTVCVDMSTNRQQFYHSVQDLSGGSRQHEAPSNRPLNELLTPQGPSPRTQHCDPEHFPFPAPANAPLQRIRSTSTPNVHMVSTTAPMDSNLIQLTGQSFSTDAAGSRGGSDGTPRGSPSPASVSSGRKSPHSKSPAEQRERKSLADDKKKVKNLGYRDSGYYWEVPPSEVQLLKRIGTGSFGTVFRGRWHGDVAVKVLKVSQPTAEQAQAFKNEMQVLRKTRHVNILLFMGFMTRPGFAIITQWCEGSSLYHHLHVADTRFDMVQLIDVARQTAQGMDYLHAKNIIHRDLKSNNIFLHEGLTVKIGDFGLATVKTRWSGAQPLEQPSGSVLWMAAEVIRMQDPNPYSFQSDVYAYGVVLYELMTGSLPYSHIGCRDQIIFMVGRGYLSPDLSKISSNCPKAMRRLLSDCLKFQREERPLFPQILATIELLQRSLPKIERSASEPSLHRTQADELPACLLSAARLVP

inhibition	Compound
99%	CNC(=O)c1cc(Oc2ccc(NC(=O)Nc3ccc(Cl)c(C(F)(F)F)c3)cc2)ccn1 [SORAFENIB]

Each compound was assayed on Hep 3B2 (assay: Antiproliferative activity against human Hep3B cells assessed as cell viability at 10 uM after 48 hrs by MTT assay relative to control). Conditions: read-out: Activity.
Assay type: functional

Compound	viability at 10 µM
CNC(=O)c1cc(-n2ccc3cc(NC(=S)Nc4cccc(C(F)(F)F)c4)ccc32)ccn1	99%
CNC(=O)c1cc(-n2ccc3cc(NC(=O)Nc4cc(C(F)(F)F)cc(C(F)(F)F)c4)ccc32)ccn1	73%
CNC(=O)c1cc(-n2ccc3cc(NC(=S)Nc4ccc(Cl)c(Cl)c4)ccc32)ccn1	86%
CNC(=O)c1cc(-n2ccc3cc(NC(=S)Nc4ccccc4)ccc32)ccn1	64%
CNC(=O)c1cc(-n2ccc3cc(NC(=O)c4ccc(F)c(C(F)(F)F)c4)ccc32)ccn1	59%
CNC(=O)c1cc(-n2ccc3cc(NC(=O)Nc4ccccc4)ccc32)ccn1	66%
CNC(=O)c1cc(Oc2ccc(NC(=O)Nc3ccc(Cl)c(C(F)(F)F)c3)cc2)ccn1 [SORAFENIB]	33%

These compounds were tested against Mast/stem cell growth factor receptor Kit (Homo sapiens, UniProt P10721) (assay: Inhibition of CKIT (unknown origin) in presence of [gamma33]-ATP at 10 uM by liquid scintillation counting analysis relative to control). Conditions: not given.
Chain of Mast/stem cell growth factor receptor Kit (P10721 whole entry): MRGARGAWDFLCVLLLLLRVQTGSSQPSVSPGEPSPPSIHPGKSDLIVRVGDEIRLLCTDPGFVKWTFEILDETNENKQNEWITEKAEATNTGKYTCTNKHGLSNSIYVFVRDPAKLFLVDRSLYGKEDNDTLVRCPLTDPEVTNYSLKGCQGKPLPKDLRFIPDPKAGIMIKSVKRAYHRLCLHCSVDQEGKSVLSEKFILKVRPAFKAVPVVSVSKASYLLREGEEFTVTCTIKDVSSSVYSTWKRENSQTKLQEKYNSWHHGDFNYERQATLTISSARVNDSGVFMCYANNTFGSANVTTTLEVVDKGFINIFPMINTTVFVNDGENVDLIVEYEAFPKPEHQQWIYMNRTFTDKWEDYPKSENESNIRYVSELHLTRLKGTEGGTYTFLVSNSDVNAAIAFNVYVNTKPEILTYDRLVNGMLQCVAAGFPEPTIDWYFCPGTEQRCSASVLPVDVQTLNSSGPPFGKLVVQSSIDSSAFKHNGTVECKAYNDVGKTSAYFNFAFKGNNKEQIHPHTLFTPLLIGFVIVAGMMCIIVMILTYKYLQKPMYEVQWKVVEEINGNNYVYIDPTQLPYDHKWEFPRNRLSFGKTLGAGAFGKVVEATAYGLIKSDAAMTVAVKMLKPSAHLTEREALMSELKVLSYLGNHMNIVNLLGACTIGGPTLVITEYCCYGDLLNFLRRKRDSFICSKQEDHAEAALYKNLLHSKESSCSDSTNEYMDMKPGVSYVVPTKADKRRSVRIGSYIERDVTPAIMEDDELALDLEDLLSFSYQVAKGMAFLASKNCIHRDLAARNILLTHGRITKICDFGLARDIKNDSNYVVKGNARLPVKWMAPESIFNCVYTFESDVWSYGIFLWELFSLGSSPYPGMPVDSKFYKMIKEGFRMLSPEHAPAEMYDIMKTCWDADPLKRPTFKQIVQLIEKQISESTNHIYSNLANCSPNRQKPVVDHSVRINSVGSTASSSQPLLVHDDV

inhibition	Compound
65.8%	CNC(=O)c1cc(Oc2ccc(NC(=O)Nc3ccc(Cl)c(C(F)(F)F)c3)cc2)ccn1 [SORAFENIB]

Each compound was assayed on Huh-7 (assay: Antiproliferative activity against human Huh-7 cells assessed as reduction in cell viability after 48 hrs by MTT assay). Conditions: Huh-7, 48 h.
Assay type: functional, cell-based

IC50	Compound
5.01 µM	CNC(=O)c1cc(-n2ccc3cc(NC(=O)Nc4cc(C(F)(F)F)cc(C(F)(F)F)c4)ccc32)ccn1
7.55 µM	CNC(=O)c1cc(Oc2ccc(NC(=O)Nc3ccc(Cl)c(C(F)(F)F)c3)cc2)ccn1 [SORAFENIB]

The compounds below were run on WI-38 (assay: Cytotoxicity against human WI-38 cells assessed as cell viability after 48 hrs by MTT assay). Conditions: WI-38, 48 h.
Assay type: cell-based

Compound	IC50
CNC(=O)c1cc(-n2ccc3cc(NC(=O)Nc4cc(C(F)(F)F)cc(C(F)(F)F)c4)ccc32)ccn1	> 30 µM
CNC(=O)c1cc(Oc2ccc(NC(=O)Nc3ccc(Cl)c(C(F)(F)F)c3)cc2)ccn1 [SORAFENIB]	> 30 µM

Each compound was assayed against Dual specificity mitogen-activated protein kinase kinase 1 (Homo sapiens) (UniProt Q02750) (assay: Inhibition of MEK-1 (unknown origin) in presence of [gamma33]-ATP at 10 uM by liquid scintillation counting analysis relative to control). Conditions: not given.
Chain of Dual specificity mitogen-activated protein kinase kinase 1 (Homo sapiens) (Q02750 whole entry): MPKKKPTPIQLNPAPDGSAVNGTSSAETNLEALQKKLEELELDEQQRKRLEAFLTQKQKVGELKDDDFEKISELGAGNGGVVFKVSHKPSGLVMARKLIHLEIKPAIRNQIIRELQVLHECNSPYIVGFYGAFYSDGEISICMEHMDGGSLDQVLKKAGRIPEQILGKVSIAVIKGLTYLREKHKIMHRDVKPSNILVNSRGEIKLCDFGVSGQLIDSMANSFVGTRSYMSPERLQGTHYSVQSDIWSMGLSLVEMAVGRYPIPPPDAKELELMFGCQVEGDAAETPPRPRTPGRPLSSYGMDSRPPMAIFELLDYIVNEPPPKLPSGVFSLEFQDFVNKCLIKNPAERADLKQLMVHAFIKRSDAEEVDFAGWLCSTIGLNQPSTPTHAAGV

inhibition	Compound
37.7%	CNC(=O)c1cc(Oc2ccc(NC(=O)Nc3ccc(Cl)c(C(F)(F)F)c3)cc2)ccn1 [SORAFENIB]

The compounds below were run against Platelet-derived growth factor receptor alpha (Homo sapiens, UniProt P16234) (assay: Inhibition of PDGFRalpha (unknown origin) in presence of [gamma33]-ATP at 10 uM by liquid scintillation counting analysis relative to control). Conditions: not given.
Chain of Platelet-derived growth factor receptor alpha (P16234 whole entry): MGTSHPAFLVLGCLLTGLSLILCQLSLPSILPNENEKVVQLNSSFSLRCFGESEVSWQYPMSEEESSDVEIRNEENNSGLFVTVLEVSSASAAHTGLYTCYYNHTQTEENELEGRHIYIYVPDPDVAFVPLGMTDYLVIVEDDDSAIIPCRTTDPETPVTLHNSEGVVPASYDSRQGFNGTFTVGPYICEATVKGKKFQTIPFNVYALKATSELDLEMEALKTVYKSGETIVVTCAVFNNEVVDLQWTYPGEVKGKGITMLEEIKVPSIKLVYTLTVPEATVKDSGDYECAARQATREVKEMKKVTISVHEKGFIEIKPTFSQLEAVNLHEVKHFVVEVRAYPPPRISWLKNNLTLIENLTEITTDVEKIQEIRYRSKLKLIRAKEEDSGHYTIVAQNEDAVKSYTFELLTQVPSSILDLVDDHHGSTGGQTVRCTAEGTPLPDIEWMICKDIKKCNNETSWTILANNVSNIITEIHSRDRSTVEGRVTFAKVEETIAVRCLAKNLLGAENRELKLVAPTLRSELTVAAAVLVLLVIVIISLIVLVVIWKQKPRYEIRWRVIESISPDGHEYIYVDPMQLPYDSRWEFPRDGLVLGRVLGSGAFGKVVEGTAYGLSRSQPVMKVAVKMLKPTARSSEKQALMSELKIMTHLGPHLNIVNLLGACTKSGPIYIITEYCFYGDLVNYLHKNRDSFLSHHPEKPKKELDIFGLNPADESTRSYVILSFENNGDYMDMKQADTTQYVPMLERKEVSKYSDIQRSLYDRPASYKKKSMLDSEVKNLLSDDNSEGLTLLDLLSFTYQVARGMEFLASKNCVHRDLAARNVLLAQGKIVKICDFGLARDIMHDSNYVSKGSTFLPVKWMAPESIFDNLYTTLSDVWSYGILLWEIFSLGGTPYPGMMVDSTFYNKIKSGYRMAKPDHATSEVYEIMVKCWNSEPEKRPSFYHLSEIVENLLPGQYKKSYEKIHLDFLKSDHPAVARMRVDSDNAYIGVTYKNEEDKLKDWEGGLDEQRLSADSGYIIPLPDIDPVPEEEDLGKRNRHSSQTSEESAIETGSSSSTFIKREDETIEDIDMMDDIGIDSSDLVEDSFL

inhibition	Compound
99.4%	CNC(=O)c1cc(Oc2ccc(NC(=O)Nc3ccc(Cl)c(C(F)(F)F)c3)cc2)ccn1 [SORAFENIB]

The compounds below were run on Huh-7 (assay: Antiproliferative activity against human Huh-7 cells assessed as cell viability at 10 uM after 48 hrs by MTT assay relative to control). Conditions: read-out: Activity.
Assay type: functional

Compound	viability at 10 µM
CNC(=O)c1cc(-n2ccc3cc(NC(=S)Nc4cccc(C(F)(F)F)c4)ccc32)ccn1	109%
CNC(=O)c1cc(-n2ccc3cc(NC(=O)Nc4cc(C(F)(F)F)cc(C(F)(F)F)c4)ccc32)ccn1	30%
CNC(=O)c1cc(-n2ccc3cc(NC(=S)Nc4ccc(Cl)c(Cl)c4)ccc32)ccn1	89%
CNC(=O)c1cc(-n2ccc3cc(NC(=S)Nc4ccccc4)ccc32)ccn1	121%
CNC(=O)c1cc(-n2ccc3cc(NC(=O)c4ccc(F)c(C(F)(F)F)c4)ccc32)ccn1	40%
CNC(=O)c1cc(-n2ccc3cc(NC(=O)Nc4ccccc4)ccc32)ccn1	74%
CNC(=O)c1cc(Oc2ccc(NC(=O)Nc3ccc(Cl)c(C(F)(F)F)c3)cc2)ccn1 [SORAFENIB]	21%
